Source: patent US9873693B2 (Sunesis Pharmaceuticals, Inc., priority 2006, dated 2018)
Read-outs that look alike come from different tables or passages of the source.

What was measured:
[1] = system: Phospho-T308 Akt; test: Phospho-T308 Akt detection using immunoblot (western blot) in PC-3 cells; assay type: cell-based; details: for Reduction of Cellular Levels of Akt p308 By Western: 2 hour incubation, concentration not given in Table 2; for inhibition at 2 µM / inhibition at 5 µM: Homo sapiens, read-out: Percent Inhibition of phospho-Akt (308) By Western
Method: A Phospho-T308 Akt detection using immunoblot (western blot) analysis was performed as described below.
PC-3 prostate cells were plated in a 6 well plate in F12K media (Invitrogen, Carlsbad, Calif.) plus 10% FBS (Invitrogen) and placed in incubator overnight. The stock of compound A was a 50 mM solution in DMSO. 1000× dilutions of the compound were made in DMSO. The 1000× dilutions include, 35 mM, 25 mM, 15 mM, 10 mM, 7 mM, 5 mM, and 1 mM. 1 μl of the 1000× dilutions was added to 1 ml F12K media without serum for final concentrations of […]. 1 μl of DMSO was added to 1 ml media with no serum for a control. The 1 ml DMSO or compound plus media was then added to the cells. Following a 2 hour incubation at 37° C., cells were harvested and washed in PBS and subjected to centrifugation at 3,300 rpm for 5 minutes. Cells were lysed in 100 μl of Bio Rad Bioplex buffer containing protease inhibitors (BioRad, Hercules, Calif.) for 30 minutes on ice followed by centrifugation at 13,000 rpm for 5 minutes. The protein content of the supernatant was assayed using DC Protein Assay (BioRad). 25 μl of protein was added to 4× sample buffer (Invitrogen) and sample reducer (Invitrogen) and run on a 4-12% NuPage gel (Invitrogen). Proteins were then transferred to nitrocellulose (Invitrogen). The membrane was blocked in Tris-buffered saline (Sigma, St. Louis, Mo.) plus 0.1% Tween (Sigma) (T-TBS) plus 5% blotting grade milk (BioRad) for 60 minutes. Membranes were then incubated in T-TBS plus 5% BSA (Sigma) plus 1:1000 of anti-phospho akt (Thr 308) (Cell Signaling Technology, Beverly, Mass.) overnight at 4° C. Membranes were washed in T-TBS then incubated in 1:2000 of anti-rabbit-HRP (Cell Signaling) in TTBS plus 5% milk. Membranes were washed again and proteins were visualized with Super Signal West Pico (Pierce, Rockford, Ill.) and using Kodak BioMax MR film (Kodak, Rochester, N.Y.).
Phospho-akt 308 protein bands on the film were quantified using densitometry. An Alpha Imager (Alpha Innotech Corp, San Leandro, Calif.) using AlphaEase FC software version 4.1.0 (Alpha Innotech Corp.) was used to quantitate protein bands. Briefly, a rectangle of equal size was placed around each protein band as well as a background spot on the film. The densitometry values (IDV=Integrated Density Value) obtained for the background spot was then subtracted from the values obtained for the protein bands. These values were used to obtain an EC50 value using non-linear regression analysis in GraphPad Prism Version 4.00 (Graph Pad Prism, San Diego, Calif.). Percent decrease in expression of phosphoh-akt 308 were also measured specifically at 2 μM and 5 μM levels of inhibitor.

[2] = system: phospho-akt (Thr308); test: phospho-akt (Thr308) MSD ELISA in PC-3 cells; assay type: cell-based; details: Homo sapiens; for EC50: PC-3, 2 h; for inhibition at 1 µM / inhibition at 10 µM: read-out: Percent Inhibition of phospho-Akt (308) By MSD ELISA
Procedure, shortened: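 Read-out is MSD electrochemiluminescence after lysate capture overnight at 4 degrees and 1 hr RT detection-antibody step. Before lysis, overnight-plated PC-3 cells received three-fold serial dilutions of inhibitor in serum-free medium, with DMSO-only high controls.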

[3] = molecular target: phosphorylated PDK1 (Homo sapiens (Human), UniProt O15530); test: PDK1 kinase assay (coupled PDK1/AKT/FAM-crosstide, IMAP); assay type: biochemical; details: 0.5 nM phosphorylated PDK1, 24 μM ATP; read-out: Inhibition of phospo-PDK1 in vitro IC50
[4] = molecular target: dephosphorylated PDK1 (Homo sapiens (Human), UniProt O15530); test: as above; assay type: biochemical; details: 25 nM un-phosphorylated PDK1, 24 μM ATP; read-out: Inhibition of dephospo-PDK1 in vitro IC50
Method: A PDK1 kinase assay was performed as follows. PDK1 (amino acids 51-360) and AKT2 (amino acids 140-467 fused to PIFtide, amino acids […]) were expressed as N-terminally tagged GST fusion proteins in insect cells and purified to greater than 90% homogeneity. PDK1 protein was divided into two fractions, one of which was subsequently dephosphorylated. To generate dephosphorylated PDK1, the PDK1 was reacted with GST-tagged lambda-phosphatase in vitro. GST was subsequently cleaved proteolytically for both phosphorylated and dephosphorylated PDK1. Protein preparations were run on glutathione Sepharose columns to remove GST and GST-tagged lambda-phosphatase, if present. Phosphorylated PDK1 and dephosphorylated PDK1 were verified by mass-spectrometry. Enzyme activity was determined in a coupled PDK1/AKT/FAM-crosstide assay using either phosphorylated or unphosphorylated PDK1 and phosphorylation of FAM-crosstide was determined by standard IMAP protocol (Molecular Devices). For inhibition studies, compounds were titrated 3-fold in DMSO and diluted 40-fold into assay buffer (10 mM Tris HCl pH7.2; 10 mM MgCl2; 0.01% Triton X-100; 1 mM DTT) containing PDK1, AKT2, and FAM-crosstide. (final concentrations: 25 nM un-phosphorylated PDK1 or 0.5 nM phosphorylated PDK1, 30 nM unphosphorylated AKT2, and 100 nM crosstide substrate). The kinase reaction was initiated by adding ATP to a final concentration of 24 μM for both forms of PDK1 and incubated at 25° C. for 30 min. To detect assay product, the kinase reaction was combined with Progressive Binding Solution (1:600 Progressive Binding Reagent, 50% Buffer A, 50% Buffer B, Molecular Devices) in a 1:3 ratio. The mixture was incubated for 2 hours at 25° C. and the plate was scanned on an Analyst AD with excitation at 485 nm and emission at 530 nm. The fluorescence polarization value “P” is defined by the equation below. The value “mP” is generated by multiplying the P value for each reaction well by a factor of 1000. The value “ΔmP” for each well is the mP value for that well minus the mP value for the average negative control. P=(Fpar−Fperp)/(Fpar+Fperp) Eq.:
Where “par” is fluorescence intensity parallel to the excitation plane; and “perp” is fluorescence intensity perpendicular to the excitation plane. ΔmP values were plotted as a function of compound concentration and the data were analyzed with a 4-parameter fit using GraphPad Prism software.

[5] = PC-3 cells, 2 hours, no serum, read-out: Inhibition of P308 Akt in cells using MSD EC50
[6] = read-out: Inhibition of P308 Akt in cells using MSD EC50
[7] = PC-3 cells, 2 hours, no serum, read-out: Reduction of Cellular Levels of Akt p308 By MSD ELISA (EC50 μM)

phosphorylated PDK1, sequence (O15530 51-360): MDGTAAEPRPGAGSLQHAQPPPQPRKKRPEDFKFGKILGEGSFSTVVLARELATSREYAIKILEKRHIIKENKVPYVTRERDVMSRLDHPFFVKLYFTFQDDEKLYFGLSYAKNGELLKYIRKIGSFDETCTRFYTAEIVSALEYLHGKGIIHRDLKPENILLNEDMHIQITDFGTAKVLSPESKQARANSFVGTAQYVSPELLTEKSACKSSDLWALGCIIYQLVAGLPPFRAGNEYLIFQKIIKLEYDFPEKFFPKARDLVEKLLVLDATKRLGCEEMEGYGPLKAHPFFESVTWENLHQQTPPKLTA
dephosphorylated PDK1, sequence (O15530 51-360): as above

Row | SMILES | Reduction of Cellular Levels of Akt p308 By Western [1] | inhibition at 2 µM [1] [%] | EC50 [2, 5] [µM] | inhibition at 1 µM ([2]; PC-3 cells) [%] | inhibition at 10 µM ([2]; PC-3 cells) [%] | IC50 [3] [µM] | EC50 [2, 6] [µM] | EC50 ([2]; read-out: Reduction of Cellular Levels of Akt p308 By MSD ELISA (EC50 μM)) [µM] | inhibition at 5 µM [1] [%] | EC50 [2, 7] [µM] | IC50 [4] [µM]
1 | O=C(NCc1cc(-c2c[nH]c3ncccc23)cs1)c1cccn(Cc2ccc(F)c(F)c2)c1=O [Cpd 17] | bbb (inhibition of more than 75%) | > 75 | 1 to 5 | 25 to 75 | > 75 | < 0.5 | – | – | – | – | –
2 | NC(=O)C[C@@H](NC(=O)c1cccn(Cc2ccc(F)c(F)c2)c1=O)c1ccc(-c2c[nH]c3ncccc23)s1 [Cpd 19] | bbb (inhibition of more than 75%) | > 75 | – | – | – | < 0.5 | 1 to 5 | 1 to 5 | – | – | –
3 | CC(=O)NC[C@@H](NC(=O)c1cccn(Cc2ccc(F)c(F)c2)c1=O)c1nc(-c2c[nH]c3ncccc23)cs1 [Cpd 136] | – | – | – | – | – | – | – | – | 25 to 75 | – | –
4 | O=C(NCc1ccc(-c2c[nH]c3ncc(F)cc23)s1)c1cccn(Cc2ccc(F)c(F)c2)c1=O [Cpd 11] | bbb (inhibition of more than 75%) | – | < 1 | – | – | < 0.5 | – | – | > 75 | < 1 | –
5 | Cc1ccc(NC(=O)c2cccn(Cc3ccc(F)c(F)c3)c2=O)cc1-c1ccc2[nH]c(=O)[nH]c2c1 [Cpd 167] | – | – | > 5 | – | – | 0.5 to 10 | – | – | – | – | 0.5 to 10
6 | O=C(NCc1cccc(-c2ccc3ncnn3c2)c1)c1cccn(Cc2ccc(F)c(F)c2)c1=O [Cpd 3] | – | – | – | < 25 | > 75 | < 0.5 | – | – | – | 1 to 5 | < 0.5
7 | O=C(NCc1nnc(-c2c[nH]c3ncccc23)o1)c1cccn(Cc2ccc(F)c(F)c2)c1=O [Cpd 125] | – | – | 1 to 5 | 25 to 75 | > 75 | < 0.5 | – | – | – | 1 to 5 | < 0.5
8 | O=C(N[C@@H](COc1ccc2[nH]c(=O)[nH]c2c1)Cc1ccccc1)c1cccn(Cc2ccc(F)c(F)c2)c1=O [Cpd 321] | – | – | > 5 | < 25 | > 75 | < 0.5 | – | – | – | – | < 0.5
9 | O=C(NCc1ccc(-c2n[nH]c3ncccc23)s1)c1cccn(Cc2ccc(F)c(F)c2)c1=O [Cpd 7] | – | – | < 1 | 25 to 75 | > 75 | < 0.5 | – | – | – | < 1 | < 0.5
10 | CC1(C)C(=O)Nc2cc(/C=C/CNC(=O)c3cccn(Cc4cc(F)c(F)c(F)c4)c3=O)ccc21 [Cpd 206] | – | – | 1 to 5 | – | – | 0.5 to 10 | – | – | – | – | < 0.5
11 | COC(=O)c1cc(-c2c[nH]c3ncccc23)cc(CNC(=O)c2cccn(Cc3ccc(F)c(F)c3)c2=O)n1 [Cpd 175] | – | – | < 1 | – | – | < 0.5 | – | – | – | – | < 0.5
12 | O=C(c1cccn(Cc2ccc(F)c(F)c2)c1=O)N1CCc2ccc(-c3c[nH]c4ncccc34)cc2C1 [Cpd 232] | – | – | > 5 | – | – | 0.5 to 10 | – | – | – | – | 0.5 to 10
13 | O=C(NCc1cccc(-c2ccc3cn[nH]c3c2)c1)c1cccn(Cc2ccc(F)c(F)c2)c1=O [Cpd 328] | – | – | > 5 | – | – | < 0.5 | – | – | – | – | < 0.5
14 | O=C(NCc1noc(-c2c[nH]c3ncccc23)n1)c1cccn(Cc2ccc(C(F)(F)F)cc2)c1=O [Cpd 143] | – | – | > 5 | – | – | < 0.5 | – | – | – | > 5 | < 0.5
15 | O=C(NCc1cccc(-c2c[nH]c3cnccc23)c1)c1cccn(Cc2ccc(F)c(F)c2)c1=O [Cpd 242] | – | – | – | < 25 | > 75 | 0.5 to 10 | – | – | – | – | < 0.5
16 | COC(=O)C[C@@H](NC(=O)c1cccn(Cc2ccc(F)c(F)c2)c1=O)c1ccc(-c2c[nH]c3ncccc23)s1 [Cpd 236] | – | – | – | – | – | 0.5 to 10 | – | – | – | > 5 | < 0.5
17 | O=C(Nc1cccc(Cc2c[nH]c3ncccc23)c1)c1cccn(Cc2ccc(F)c(F)c2)c1=O [Cpd 128] | – | – | > 5 | – | – | 0.5 to 10 | – | – | – | – | < 0.5
18 | O=C(C[C@@H](NC(=O)c1cccn(Cc2ccc(F)c(F)c2)c1=O)c1nnc(-c2c[nH]c3ncccc23)o1)NCCO [Cpd 297] | – | – | – | < 25 | < 25 | < 0.5 | – | – | – | – | < 0.5
19 | O=C1Cc2ccc(/C=C/CNC(=O)c3cc(Cl)cn(Cc4cc(F)c(F)c(F)c4)c3=O)cc2N1 [Cpd 193] | – | – | – | – | – | < 0.5 | > 5 | – | – | – | < 0.5
20 | O=C(NCc1cccc(-c2ccc3nccn3c2)c1)c1cccn(Cc2ccc(F)c(F)c2)c1=O [Cpd 336] | – | – | – | 25 to 75 | > 75 | – | – | – | > 75 | – | –
21 | O=C(NCc1noc(-c2c[nH]c3ncccc23)n1)c1cc(Cl)cn(Cc2ccc(F)c(F)c2)c1=O [Cpd 314] | – | – | > 5 | 25 to 75 | > 75 | < 0.5 | – | – | – | – | < 0.5
22 | O=C(NCc1noc(-c2c[nH]c3ncccc23)n1)c1cc(Cl)cn(Cc2ccc(F)cc2)c1=O [Cpd 319] | – | – | > 5 | < 25 | 25 to 75 | < 0.5 | – | – | – | – | < 0.5
23 | O=C(NCc1cc(-c2c[nH]c3ncccc23)[nH]n1)c1cccn(Cc2cc(F)c(F)c(F)c2)c1=O [Cpd 152] | – | – | 1 to 5 | – | – | < 0.5 | – | – | – | – | < 0.5
